According to patent US20230097753A1, “ALPHA-HYDROXYLATED FATTY-ACID METABOLITES, MEDICAL USES AND USE AS BIOMARKERS” (UNIVERSITAT DE LES ILLES BALEARS, priority 2020, published 2023):
“And” between values parts separate entries of the source, which are not always exact repeats. Identical values can stand only once. Values belong to the compound of their own block, whether it stands above or below them.

Assays:
SF-295 = test: Cell survival by trypan blue vital exclusion staining, 2OHOA and oxythiamine; type: cell-based, human
Experimental: FIG. 18. Effect of metabolite C17:1n-9 on the action of 2OHOA. […] Cell viability was determined by vital exclusion staining with trypan blue.
(§1) To study whether the metabolite C17:1n-9 can participate in the action of 2OHOA, the effect of pre-incubation with oxythiamine on cell survival and 2OHOA-regulated proteins was studied. To do this, the cell survival of different glioma and non-tumor cell lines treated with 2OHOA (400 μM, 72 hours) and pre-incubated or not with 2 mM […] (90 minutes) was analyzed by counting the cells with the vital exclusion stain with trypan blue. In addition, Western-blot 2OHOA-modulated proteins were studied. In glioma cells, a significant decrease in cell survival was observed after incubation with 2 mM oxythiamine for 72 hours.

SF-295 glioma cells [1] = conditions: human, 24 h, 400 μM
Source text: (§4) Analysis of the composition of fatty acids in different glioma and non-tumor cell lines after treatment with 2OHOA sodium salt. […] The black bar corresponds to the concentration of each fatty acid in the control, and the white bar corresponds to the concentration of the fatty acid after treatment with 2OHOA sodium salt. C17:0 margaric acid is included as an internal control. The columns show the mean±SEM of three independent experiments expressed in nmoles and normalized per mg of protein. Statistical significance is determined with a Student's t-test (**p<0.01, ***p<0.001 with respect to the control).

[2] = system: MRC-5 (human fibroblasts); test: Cell viability by violet crystal staining, 72 hours; type: cell-based
Experimental: (§2) FIG. 15. Effect of 2OHOA sodium salt, C17:1n-9 sodium salt, and OA on cell viability and proliferation of non-tumor cells. Non-tumor cell viability curves (A1-A3) MRC-5 (human fibroblasts); and (B1-B3) mouse astrocytes treated with increasing doses of 2OHOA sodium salt (0-1000 μM) (A1 and B1); OA (0-300 μM) (A2 and B2); and C17:1n-9 sodium salt (0-300 μM) (A3 and B3) for 72 hours. Viability was determined by violet crystal staining.
(§3) In order to evaluate the antiproliferative effect of C17:1n-9, its IC50, which corresponds to the amount of a compound needed to reduce cell viability in vitro by 50%, as well as its effect on the regulation of proteins involved in the mechanism of action of 2OHOA, were determined. […] Upon completion of treatment, IC50 was determined by violet crystal staining technique. […] The IC50 of 2OHOA was 1000 μM for non-tumor cells, MRC-5 and astrocytes.

mouse astrocytes [3] = test: as above; type: cell-based; conditions: Astrocyte, Astrocytes non-tumor cells
Experimental: as §2, §3

[4] = Fatty acids in rat plasma after oral 2OHOA sodium salt (gas chromatography); type: in vivo; conditions: for Maximum plasma concentration: 2 hours after oral 2OHOA sodium salt 2 g/Kg; for Maximum plasma concentration / Time of maximum plasma concentration: acute treatment
Experimental: FIG. 20. […] Statistical significance is determined with a Wilcoxon test (*p<0.05 and **p<0.01 with respect to baseline levels at 0 hours; $p<0.05 and $$p<0.01 with respect to 2OHOA fatty acid levels).
FIG. 21. […] Statistical significance is determined by a Wilcoxon test (*p<0.05 and **p<0.01 with respect to baseline levels at 0 hours; $p<0.05 and $$p<0.01 with respect to 2OHOA fatty acid levels).
For the present study, 2 g of 2OHOA/Kg sodium salt was administered to rats 12-14 weeks of age orally for 15 days. Subsequently, plasma samples were extracted at different times (0, 1, 2, 3, 4, 6, 8 and 24 h) from day 1 (acute treatment) and 15 (chronic treatment). Finally, the fatty acid profile in plasma samples was analyzed by gas chromatography.

[5] = defined in preclinical studies; cited from earlier work
[6] = system: BIP, CHOP, cJun phosphorylation, phosphorylation of Akt, cyclin D3; test: Western Blot of proliferation and death markers in glioma and non-tumor cell lines; type: cell-based; conditions: 200 μM C17:1n-9, 200 μM OA or 400 μM 2OHOA, 72 hours
Experimental: FIG. 16. Analysis of the effect of different fatty acids on markers of proliferation and death in different cell lines.
as §1

mouse astrocytes [7] = conditions: 24 h, 400 μM
Source text: as §4

[8] = system: MRC-5 (human fibroblasts); conditions: 24 h, 400 μM
Source text: as §4

[9] = Fatty acids in plasma of patients with advanced glioma treated with 2OHOA sodium salt; type: in vivo, human; conditions: for Time of peak plasma levels: first day
Experimental: FIG. 24. Analysis of composition in fatty acids in human patients with advanced glioma. (A) Representative chromatogram of the fatty acid composition of a patient with glioma responsive to treatment with 2OHOA sodium salt (12 g/day, 21 days) and determined in plasma samples obtained at different treatment times (0, 4 and 360 hours, 15 days) by gas chromatography. […] The C17:0 margaric acid in the chromatograms was quantified as internal control.
Plasma samples were obtained at different times (0, 2, 4, 6, 8 hours and after 8, 15, 21 and 28 days after treatment with 2OHOA) and were subsequently given for fatty acid analysis using the gas chromatography technique.

SF-295 glioma cells [10] = test: Cell viability by violet crystal staining, 72 hours; type: cell-based, human; conditions: for IC50: SF-295, 72 hours
Experimental: FIG. 14. Effect of 2OHOA sodium salt, OA and C17:1n-9 sodium salt on cell viability and proliferation of glioma cells. […] Viability was determined by violet crystal staining.
as §3

mouse astrocytes [11] = test: Fatty acid composition by gas chromatography after treatment with 2OHOA; conditions: 2OHOA 400 μM for 24 hours
Source text: as §4

[12] = system: MRC-5 (human fibroblasts); test: as above; conditions: MRC-5, 2OHOA 400 μM for 24 hours
Source text: as §4

[13] = patients, 12 g/day 2OHOA sodium salt

Structure (SMILES): CCCCCCCC/C=C\CCCCCCC(O)C(=O)O (stereo not shown) [2OHOA, 2-hydroxyoleic acid]
Cell death (SF-295; SF-295, 2OHOA 400 μM, 72 hours): 23.97±1.25% | Cell death (SF-295; SF-295, 2OHOA combined with 2 mM oxythiamine): 10.85±0.58% | Recovery in cell viability (SF-295; SF-295, 2OHOA combined with 2 mM oxythiamine vs 2OHOA alone): 17.25% | Level of the fatty acid in cells after treatment with 2OHOA (SF-295 glioma cells [1]): 9.21 nmol/mg | IC50 ([2]; Homo sapiens, MRC5, MRC-5 non-tumor cells): > 1000 µM | IC50 (mouse astrocytes [3]): > 1000 µM | Maximum plasma concentration [4]: 26.23±5.79 nmol/ml plasma | Time of maximum plasma concentration ([4]; oral 2OHOA sodium salt 2 g/Kg): 2 h | concentration at 8 h ([4]; plasma, oral 2OHOA sodium salt 2 g/Kg, read-out: Plasma level after 8 hours): 7.12 ± 1.56 µM | concentration at 0 h ([4]; plasma, oral 2OHOA sodium salt 2 g/Kg, read-out: Plasma level at 0 hours (initial levels, prior to administration)): 1.22 ± 0.33 µM | concentration at 24 h ([4]; plasma, oral 2OHOA sodium salt 2 g/Kg, read-out: Plasma level at 24 hours (trough values)): 2.8 ± 0.69 µM | Maximum tolerated dose [5]: 2000 mg/kg | Effect on signaling proteins (Western Blot) [6]: increased levels of BIP, CHOP and cJun phosphorylation and decreased phosphorylation of Akt and cyclin D3 levels | 2OHOA accumulated more than its metabolite C17:1n-9 (mouse astrocytes [7]): 38.27% | 2OHOA accumulated more than its metabolite C17:1n-9 [8]: 46% | concentration at 4 h ([9]; human, plasma, oral, patients (responders and non-responders), 12 g/day 2OHOA sodium salt, read-out: Plasma level 4 hours after the first intake): 53.1 ± 6.52 µM | concentration at 8 h ([9]; human, plasma, oral, patients, 12 g/day 2OHOA sodium salt, read-out: Plasma level 8 hours after treatment): 25.4 ± 3.99 µM | concentration at 360 h ([9]; human, plasma, oral, patients, 12 g/day 2OHOA sodium salt, read-out: Plasma level after 15 days (360 hours) of treatment): 185 ± 25.6 µM | concentration at 192 h ([9]; human, plasma, oral, patients, 12 g/day 2OHOA sodium salt, read-out: Plasma level at 8 days of treatment (192 hours)): 25.4 ± 3.99 µM | Plasma level after 15 days (360 hours) of treatment [9, 13]: 141.10±16.35 nmol/ml plasma | Plasma level at 8 days of treatment (192 hours) [9, 13]: 25.39±3.99 nmol/ml plasma | Plasma level at 21 days of treatment [9, 13]: 184.70±25.60 nmol/ml plasma | Time of peak plasma levels [9, 13]: 4 h | IC50 (SF-295 glioma cells [10]; Homo sapiens): 399 ± 11.5 µM | IC50 of 2OHOA relative to that of metabolite C17:1n-9 (SF-295 glioma cells [10]; SF-295): 1.60 times | IC50 of 2OHOA relative to that of non-hydroxy analogue OA (SF-295 glioma cells [10]; SF-295): 1.56 times

Maximum plasma concentration [4]: 60.47±6.53 nmol/ml plasma | Plasma level after 8 hours ([4]; oral 2OHOA sodium salt 2 g/Kg): 23.31±5.18 nmol/mL plasma | Plasma level at 0 hours (initial levels, prior to administration) ([4]; oral 2OHOA sodium salt 2 g/Kg): 8.45±2.52 nmol/ml plasma | Time of maximum plasma concentration ([4]; oral 2OHOA sodium salt 2 g/Kg): 2 h | Level of the fatty acid in cells after treatment with 2OHOA (mouse astrocytes [11]): 7.58 ± 0.70 nmol/mg and 7.58 nmol/mg | Level of the fatty acid in cells after treatment with 2OHOA [12]: 14.00 nmol/mg | Plasma level 4 hours after the first intake ([9]; patients (responders and non-responders), 12 g/day 2OHOA sodium salt): 122.80±10.61 nmol/ml of plasma | C17:1n-9 plasma levels relative to 2OHOA ([9]; patients at 21 days of treatment): 1.90 times | C17:1n-9 plasma levels relative to 2OHOA ([9]; patients treated for 8 days): 3.66 times | C17:1n-9 plasma levels relative to 2OHOA ([9]; patients treated for 15 days): 2.20 times | Plasma level 8 hours after treatment [9, 13]: 92.89±9.39 nmol/ml of plasma | Plasma level at 21 days of treatment [9, 13]: 366.9±72.47 nmol/ml plasma | Time of peak plasma levels [9, 13]: 4 h | IC50 (SF-295 glioma cells [10]): 249 ± 6.02 µM
Structure (SMILES): CCCCCCCC/C=C\CCCCCCC(=O)O [C17:1n-9, 8Z-heptadecenoic acid]
IC50 ([2]; MRC-5 non-tumor cells): 248 ± 7.28 µM | Plasma level at 24 hours (trough values) ([4]; oral 2OHOA sodium salt 2 g/Kg): 14.03±2.20 nmol/ml plasma and 14.03±2.21 nmol/ml plasma | Effect on signaling proteins (Western Blot) [6]: did not produce changes in any of these proteins
